Counter-ions that a name gives are not always drawn.
system: HBV rcDNA in HepDE19 cells; assay: HepDE19 assay with bDNA quantitation of HBV rcDNA; type: cell-based, hepatitis B virus (HBV); details: HepDE19 cells, inhibition of rcDNA formation, 7 day incubation, top concentration 25 μM; read-out: DE-19 bDNA EC50

SMILES | EC50 [µM]
COC(=O)NC1(C)CCc2c(C(=O)Nc3ccc(F)c(Cl)c3)ccc(F)c21 (stereo not shown) [Compound 218, O-Methyl, N-(4-((3-chloro-4-fluorophenyl)carbamoyl)-7-fluoro-1-methyl-2,3-dihydro-1H-inden-1-yl) carbamate] | 1.9
CC1(NC(=O)OCc2ccccn2)CCc2c(C(=O)Nc3ccc(F)c(Cl)c3)ccc(F)c21 (stereo not shown) [Compound 219, O-pyridin-2-ylmethyl, N-(4-((3-chloro-4-fluorophenyl)carbamoyl)-7-fluoro-1-methyl-2,3-dihydro-1H-inden-1-yl) carbamate] | 1.5
O=C(Nc1ccc(F)c(Cl)c1)c1ccc(F)c2c1CCC21NC(=O)N(Cc2ccccn2)C1=O (stereo not shown) [Compound 259, N-(3-chloro-4-fluoro-phenyl)-7′-fluoro-2,5-dioxo-1-(2-pyridylmethyl) spiro[imidazolidine-4,1′-indane]-4′-carboxamide] | 2.9
COC(=O)NC1(C)CCc2c(C(=O)Nc3ccc(F)c(Cl)c3)ccc(F)c21 (stereo not shown) [Compound 217, O-Methyl, N-(4-((3-chloro-4-fluorophenyl)carbamoyl)-7-fluoro-1-methyl-2,3-dihydro-1H-inden-1-yl) carbamate] | 12

same assay, conditions: Hepatitis B virus, HepDE19, 168 h, HepDE19 cells, inhibition of rcDNA formation, 7 day incubation, top concentration 25 μM; read-out: DE-19 bDNA EC50

SMILES | EC50 [µM]
Cn1cnc(COC(=O)N[C@H]2CCc3c(C(=O)Nc4ccc(F)c(Cl)c4)ccc(F)c32)n1 [Compound 102, O-(1-Methyl-1H-1,2,4-triazol-3-yl)methyl, N—(S)-(4-((3-chloro-4-fluorophenyl)carbamoyl)-7-fluoro-2,3-dihydro-1H-inden-1-yl) carbamate] | 0.07
O=C(CO)N[C@H]1CCc2c(C(=O)Nc3ccc(F)c(Cl)c3)ccc(F)c21 [Compound 143, (S)—N-(3-Chloro-4-fluorophenyl)-7-fluoro-1-(2-hydroxyacetamido)-2,3-dihydro-1H-indene-4-carboxamide] | 1.5
O=C(Nc1ccc(F)c(Cl)c1)c1cccc2c1CC[C@@H]2NS(=O)(=O)NC1CC1 [Compound 242, (S)-N-(3-chloro-4-fluorophenyl)-1-((N-cyclopropylsulfamoyl)amino)-2,3-dihydro-1H-indene-4-carboxamide] | 0.57
Cc1cc(NC(=O)c2cccc3c2CC[C@@H]3NC(=O)OCc2ccccn2)ccc1F [Compound 23, O-Pyridin-2-ylmethyl, N—(S)-(4-((4-fluoro-3-methylphenyl)carbamoyl)-2,3-dihydro-1H-inden-1-yl) carbamate] | 0.45
CNC(=O)N[C@H]1CCc2c(C(=O)Nc3ccc(F)c(F)c3)cccc21 [Compound 2, (S)—N-(3,4-Difluorophenyl)-1-(3-methylureido)-2,3-dihydro-1H-indene-4-carboxamide] | 1.4

same assay, conditions: Hepatitis B virus, HepDE19, 168 h, read-out: DE-19 bDNA EC50 (μM), HepDE19 cells, inhibition of rcDNA formation, 7 day incubation, top concentration 25 μM

SMILES | EC50 [µM]
O=C(N[C@H]1CCc2c(C(=O)Nc3ccc(F)c(Cl)c3)ccc(F)c21)OCc1ccn(COP(=O)(O)O)n1 [Compound 254, Sodium (S)-(3-((((4-((3-chloro-4-fluorophenyl)carbamoyl)-7-fluoro-2,3-dihydro-1H-inden-1-yl)carbamoyl)oxy)methyl)-1H-pyrazol-1-yl)methyl phosphate] | 0.57
Cc1cccn2cc(COC(=O)N[C@H]3CCc4c(C(=O)Nc5ccc(F)c(Cl)c5)ccc(F)c43)nc12 [Compound 87, O-(8-Methylimidazo[1,2-a]pyridin-2-yl)methyl, N—(S)-(4-((3-chloro-4-fluorophenyl)carbamoyl)-7-fluoro-2,3-dihydro-1H-inden-1-yl) carbamate Hydrochloride] | 0.2
O=C(N[C@H]1CCc2c(C(=O)Nc3ccc(F)c(C(F)F)c3)ccc(F)c21)OCc1ccccn1 [Compound 148, O-Pyridin-2-ylmethyl, N—(S)-(4-((3-(difluoromethyl)-4-fluorophenyl)carbamoyl)-7-fluoro-2,3-dihydro-1H-inden-1-yl)carbamate Hydrochloride] | 0.12

same assay, conditions: read-out: DE-19 bDNA EC50; HepDE19 cells, inhibition of rcDNA formation, 7 day incubation, top concentration 25 μM

SMILES | EC50 [µM]
COC(=O)NC1CSc2c(C(=O)Nc3ccc(F)c(Cl)c3)ccc(F)c21 (stereo not shown) [Compound 59, O-Methyl, N-(7-((3-chloro-4-fluorophenyl)carbamoyl)-4-fluoro-2,3-dihydrobenzo[b]thiophen-3-yl) carbamate] | 12
